Experimental data reported in US7855232B2, “Organoselenium compound for cancer chemoprevention” (LKT Laboratories, Inc., priority 2001, dated 2010).
Marks after values point to notes of the source that are not given here.

Key:
Type in all cases: in vivo, Female A/J mice
GSH = experiment: Glutathione (GSH) concentration in tissues of treated mice, HPLC; details: for Ratio Test/con (GSH): gavage; for GSH conc.: gavage in corn oil
Procedure: GSH was quantitated by modification of the procedure Siller-Cepeda et al. Plant Cell Physiol. 32:1179-1185 (1991). Aliquots of tissue homogenates were mixed with equal volumes of 20% PCA containing 2 mM BPDS. Vortex, centrifuge at 7800×g for 15 minutes at 4° C. and 250 μl supernatant transferred into a microfuge tube containing 25 μl of γ-glu-glu as internal standard. The samples were carboxymethylated with 25 μl of 100 mM iodoacetic acid dissolved in 0.2 mM m-cresol purple sodium salt solution. The pH of the solution was adjusted to 9-10 by adding 350 μl of KOH (2M)-KHCO3 (2.4 M) mixture and incubated in the dark for 15 minutes. After carboxymethylation, the samples were derivatized with 500 μl of 1% dinitrofluorobenzene (DNFB) and kept in the dark at 4° C. overnight. The samples were centrifuged at 13,000×g for 15 minutes, filtered through 0.2 μm filter, and were analyzed with a SHIMADZU two-pump gradient HPLC system. Samples were injected by a SHIMADZU SIL-10AV Autoinjector onto a Varian 3-aminopropyl MICROSORB-MV column (4.6×250 mm) operated at ambient temperature with a flow rate of 1 ml/min. Absorbance of the dinitrophenyl derivatives was monitored at 365 nm. The amount of GSH was calculated from a standard curve using γ-glu-glu as internal standard.

[1] = test system: Glutathione S-Transferase; experiment: Glutathione S-transferase (GST) activity in tissue cytosol of treated mice, CDNB substrate; details: for Ratio Test/con (GST): gavage; for GST act.: gavage in corn oil
Procedure: The activity of cytosolic was assayed according to the method of Habig et al. using 1-chloro-2,4-dinitrobenzene (CDNB) as the substrate. Habig et al, J. Biol. Chem. 249:7130-7139 (1974). The complete solution contains, in a total volume of 2.0 mL, 0.1 M phosphate buffer, pH 6.5, 5 mM glutathione, 1 mM CDNB, and 20 μL of the cytosol. The reaction was monitored at 340 nm in a Beckman Model DU65 UV-VIS spectrophotometer. Assays were performed at 30° C. Complete assay mixture without the cytosolic enzyme was used as the reference blank. Data as analyzed by the Student's “t” test and P values were obtained in comparison to the control.

[2] = test system: UDP-Glucuronosyltransferase (UDP-GT); experiment: UDP-glucuronosyltransferase (UDP-GT) activity in liver microsomes of treated mice, o-aminophenol substrate; details: for Ratio Test/con (UDP-GT): gavage; for UDP-GT activity (column head prints GSH conc.): gavage in corn oil
Procedure: Microsomal samples were assayed for enzymatic conjugation by modifying the procedure of Zakim et al., Methods of Biochemical Analysis, ed. David Glick, 21:1-37, (1973). using o-aminophenol as the substrate. The complete assay solution contains, in a total volume of 500 μl, 0.25 M phosphate buffer (pH 7.6), 0.002 M o-aminophenol, 0.05 M UDPGA, 0.125 M magnesium chloride and 100 μl microsomes. The mixture was incubated for 30 minutes. Reactions were stopped by the addition of 500 μl of TCA-sodium phosphate reagent. The precipitated protein was removed, 100 μl of 0.05% sodium nitrite was added to 950 μl of the supernatent solution and allowed to stand for 5 minutes. 100 μl of 0.5% ammonium sulfamate was added, after 5 minutes. 100 μl of 0.12% N-(-1-naphthyl)ethylenediamine dihydrochloride was added and incubated for 2 hours in the dark; and the difference in the optical density between the blanks and the samples were recorded at 555 nm in a Beckman model DU65 UV-VIS spectrophotometer. The UDP-GT activity was calculated using the extinction coefficient 29 mM-1 cm-1 for the coupled product.

[3] = liver, dose 0.02 mmol/Kg body weight
[4] = liver, dose 0.04 mmol/Kg body weight
[5] = small intestinal mucosa, dose 0.02 mmol/Kg body weight
[6] = small intestinal mucosa, dose 0.04 mmol/Kg body weight
[7] = colon, dose 0.02 mmol/Kg body weight
[8] = colon, dose 0.04 mmol/Kg body weight
[9] = forestomach, dose 0.02 mmol/Kg body weight
[10] = forestomach, dose 0.04 mmol/Kg body weight
[11] = lung, dose 0.02 mmol/Kg body weight
[12] = lung, dose 0.04 mmol/Kg body weight

| SMILES | Ratio Test/con (GSH) (GSH; [3]) | GSH conc. (GSH; [3]) [μmol/gm tissue weight] | Ratio Test/con (GSH) (GSH; [4]) | GSH conc. (GSH; [4]) | Ratio Test/con (GSH) (GSH; [5]) | GSH conc. (GSH; [5]) | Ratio Test/con (GSH) (GSH; [6]) | Ratio Test/con (GST) [1, 7] | GST act. [1, 7] | Ratio Test/con (GST) [1, 8] | GST act. [1, 8] | Ratio Test/con (GST) [1, 9] | GST act. [1, 9] [μmol/min mg protein] | Ratio Test/con (GST) [1, 10] | GST act. [1, 10] [μmol/min mg protein] | Ratio Test/con (GST) [1, 3] | GST act. [1, 3] | Ratio Test/con (GST) [1, 4] | GST act. [1, 4] | Ratio Test/con (GST) [1, 11] | further results |
| --- | --- | --- | --- | --- | --- | --- | --- | --- | --- | --- | --- | --- | --- | --- | --- | --- | --- | --- | --- | --- | --- |
| [Se]=C=NCc1ccc(CN=C=[Se])[se]1 [(7) SDMISC, selenophenyl-2,5-di-methylene isoselenocyanate] | 1.30 | 4.63 ± 1.30 | 1.20 | 4.25 ± 1.02 μmol/gm tissue weight | 1.36 | 2.86 ± 0.14^c μmol/gm tissue weight | 1.90 | 1.23 | 0.80 ± 0.03 ^c μmol/min mg protein | 1.34 | 0.87 ± 0.03 ^e μmol/min mg protein | 1.10 | 1.22 ± 0.21 | 1.14 | 1.27 ± 0.28 | 2.39 | 3.06 ± 0.41 ^e μmol/min mg protein | 2.34 | 3.00 ± 0.13 ^c μmol/min mg protein | 1.31 | GSH conc. (GSH; [6]): 4.00 ± 0.35^d μmol/gm tissue weight; dose response of GST induction (in words) ([1]; colon): dose response induction; GST act. [1, 11]: 0.45 ± 0.04 ^f μmol/min mg protein; Ratio Test/con (GST) [1, 12]: 1.16; GST act. [1, 12]: 0.40 ± 0.04 μmol/min mg protein; Ratio Test/con (GST) [1, 5]: 2.26; GST act. [1, 5]: 0.50 ± 0.14 ^e μmol/min mg protein; Ratio Test/con (GST) [1, 6]: 2.82; GST act. [1, 6]: 0.62 ± 0.04 ^c μmol/min mg protein; Ratio Test/con (GST) ([1]; small intestinal mucosa, dose 0.04 mmol/Kg body weight, listed as SDMISC 7): 2.83; Ratio Test/con (UDP-GT) ([2]; dose 0.02 mmol/Kg body weight): 2.56; UDP-GT activity (column head prints GSH conc.) ([2]; dose 0.02 mmol/Kg body weight): 10.37 ± 1.99 ^d nmol/min/mg protein; Ratio Test/con (UDP-GT) ([2]; dose 0.04 mmol/Kg body weight): 1.60; UDP-GT activity (column head prints GSH conc.) ([2]; dose 0.04 mmol/Kg body weight): 6.46 ± 1.95 nmol/min/mg protein |
| N#C[Se]Cc1ccc[se]1 [(3) SMSC, 2-selenophenyl methylene selenocynate] | 0.98 | 3.49 ± 0.90 | 1.38 | 4.89 ± 0.57^c μmol/gm tissue weight | 0.89 | 1.88 ± 0.4 μmol/gm tissue weight | 1.00 | 1.08 | 0.70 ± 0.05 μmol/min mg protein | 1.06 | 0.69 ± 0.09 μmol/min mg protein | 0.8 | 0.89 ± 0.22 | 1.01 | 1.12 ± 0.19 | 0.81 | 1.04 ± 0.18 ^g μmol/min mg protein | 1.58 | 2.02 ± 0.33 ^e μmol/min mg protein | 1.18 | GST act. [1, 11]: 0.40 ± 0.03 ^f μmol/min mg protein; Ratio Test/con (GST) [1, 12]: 1.00; GST act. [1, 12]: 0.34 ± 0.06 μmol/min mg protein; Ratio Test/con (GST) [1, 5]: 0.86; GST act. [1, 5]: 0.19 ± 0.5 μmol/min mg protein; Ratio Test/con (GST) [1, 6]: 0.91; GST act. [1, 6]: 0.20 ± 0.02 μmol/min mg protein; Ratio Test/con (UDP-GT) ([2]; dose 0.02 mmol/Kg body weight): 1.52; UDP-GT activity (column head prints GSH conc.) ([2]; dose 0.02 mmol/Kg body weight): 6.15 ± 1.20 ^d nmol/min/mg protein; Ratio Test/con (UDP-GT) ([2]; dose 0.04 mmol/Kg body weight): 2.36; UDP-GT activity (column head prints GSH conc.) ([2]; dose 0.04 mmol/Kg body weight): 9.56 ± 4.23 ^d nmol/min/mg protein |
